Reference: ChEMBL document CHEMBL1141295, “Constituents of Ocimum sanctum with antistress activity” (J Nat Prod, 2007)
The source made the active and inactive calls.

Tests used:
Format in all cases: functional, organism-based
Design in all cases: dose 40 mg/kg
Rattus norvegicus [1] = test: Increase in acute stress induced plasma creatine levels in Sprague-Dawley rat at 40 mg/kg, po
Rattus norvegicus [2] = test: Increase in acute stress induced glucose levels in Sprague-Dawley rat at 40 mg/kg, po
Rattus norvegicus [3] = test: Increase in acute stress induced plasma corticosterone levels in Sprague-Dawley rat at 40 mg/kg, po
Rattus norvegicus [4] = test: Decrease in acute stress induced adrenal hypertrophy in Sprague-Dawley rat at 40 mg/kg, po
Rattus norvegicus [5] = test: Increase in acute stress induced adrenal gland weight in Sprague-Dawley rat at 40 mg/kg, po

Measured: Activity

C=CCc1ccc(O[C@@H]2O[C@H](CO)[C@@H](O)[C@H](O)[C@H]2O)c(O)c1
active: Rattus norvegicus [1] | Rattus norvegicus [2] | Rattus norvegicus [3] | Rattus norvegicus [4] | Rattus norvegicus [5]

CCCCCCCCCCCCCCCCCCCCCC(=O)O[C@H](COC(=O)CCCCCCCCCCCCCCC)CO[C@H]1O[C@H](CN)[C@@H](O)[C@H](O)[C@H]1O
active: Rattus norvegicus [1] | Rattus norvegicus [2] | Rattus norvegicus [3] | Rattus norvegicus [4] | Rattus norvegicus [5]

CCCCCCCCCCCCCCCCCC(=O)OC[C@H](CO[C@@H]1O[C@H](CO[C@H]2O[C@H](CO)[C@H](O)[C@H](O)[C@H]2O)[C@H](O)[C@H](O)[C@H]1O)OC(=O)CCCCCCCCCCCCC
active: Rattus norvegicus [1] | Rattus norvegicus [3] | Rattus norvegicus [5]
